Measurements reported in US5973114A, “Isolation and characterization of the growth hormone releasing hormone receptor” (priority 1992, dated 1999).
Entries after “also recorded” stand apart in the source; their conditions may differ. One block for each compound: values may come before it.

Key:
GHRH receptor (GHRH-R) = test: 125I-GHRHa binding assay in crude ovine pituitary membrane pellets; settings: for displacement of photoprobe binding to membrane pellets: both photoprobes; for competition for the 125I-GHRHa binding site: 100 nM competitor
Method: Specific binding is defined as the difference in the binding seen with 20 pM iodinated analog alone and binding of the analog in the presence of 10 nM non-iodinated GHRHa.
All steps were performed at 4° C. Frozen ovine or bovine anterior pituitaries (ovine: approximately 1 gm/pituitary obtained from Dr. Iain Clarke, Melbourne, Australia; bovine: approximately 2.5 gm/pituitary special handling from Pel-Freez, of Rogers, Ak.) were washed of blood, cleaned of connective tissue and homogenized (using a Dounce homogenizer) in 50 mM HEPES buffer, 100 mM NaCl, 10 mM EDTA, 0.1 μM EGTA, pH 7.4 with 0.5 mM PMSF (phenyl methyl sulfonyl fluoride), 10 μg/ml leupeptin, 10 μg/ml pepstatin A, and 200 U/ml (units/ml) aprotinin. This buffer is used to remove endogenous GTP which might be bound to G proteins and to restore high affinity binding. The homogenate was spun at top speed in a microfuge and the supernatant discarded. The upper (membrane) layer of the pellet was then gently resuspended in binding buffer containing 50 mM Tris buffer, 5 mM EGTA, 5 mM MgCl2, 50 μg/ml alamethicin, 30 μg/ml bacitracin and other protease inhibitors as above.
1/50 pituitary equivalent per tube was incubated in binding buffer with approximately 100,000 counts of iodinated probe in a volume of 500 μl at room temperature for 1 hour. The total counts delivered and the percent of counts bound for each tube was determined with 3 to 6 replicates per experimental condition. Saturation binding profiles were analyzed with the computer program Ligand which performs a statistically weighted least squares fit to the exact ligand binding equation in nontransformed coordinates.

GHRH-R (55 kDa band) = test: photoaffinity cross-linking of the 55 kDa GHRH-R band, SDS-PAGE autoradiography; format: binding, ovine; settings: 125I-GHRHa-ANB-NOS probe
Method: Photoprobe binding in ovine pituitary membrane pellets was determined by γ-counting and UV induced cross-linking was examined by autoradiagraphy of sodium dodecylsulfate polyacrylamide electrophoresis (SDS-PAGE) gels. ^125 I-GHRHa -ANB-NOS probe bound with an affinity of about one nanomole, nM (compared to about 160 picomole, pM, for GHRHa).
Photoprobe binding to membranes was evaluated with crude membrane binding assay and then analyzed further by SDS-PAGE electrophoresis to identify the binding sites. Photoprobes were incubated in the dark, photolysed for 10 minutes with a long wave (366 nm) UV lamp, and then the samples were pelleted. The pellets were counted and then extracted by boiling directly in SDS sample buffer (total SDS extracts). Alternatively, the labeled pellets were extracted in a mild detergent solution (5 mM CHAPS) centrifuged, and the chloroform/methanol concentrated supernatants denatured with SDS buffer (CHAPS extracts). These samples were then electrophoresed in SDS gels and autoradiographed.

[1] = molecular target: T1, secretin and VIP receptors (Homo sapiens, UniProt P47872); settings: 10 μM; human pancreas; cited from earlier work
T1 construct: host or cells: human pancreas
T1 sequence (P47872 23-440): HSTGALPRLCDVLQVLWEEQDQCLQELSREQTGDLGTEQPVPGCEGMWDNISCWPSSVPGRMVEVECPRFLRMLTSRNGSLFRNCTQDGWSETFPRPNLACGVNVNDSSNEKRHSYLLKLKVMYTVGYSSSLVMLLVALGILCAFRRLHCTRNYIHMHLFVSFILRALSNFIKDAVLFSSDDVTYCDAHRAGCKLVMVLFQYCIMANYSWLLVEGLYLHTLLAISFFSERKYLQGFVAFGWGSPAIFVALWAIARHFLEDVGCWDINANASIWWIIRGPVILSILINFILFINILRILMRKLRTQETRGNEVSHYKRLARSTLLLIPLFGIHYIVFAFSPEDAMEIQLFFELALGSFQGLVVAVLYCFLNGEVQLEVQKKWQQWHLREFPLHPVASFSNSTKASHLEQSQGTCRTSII

Compound: pituitary adenylate cyclase activating peptide [PACAP]
competition for the 125I-GHRHa binding site (GHRH receptor (GHRH-R)): did not compete; also recorded: no competition

Compound: O[C@H](CS)[C@H](O)CS (racemic) [DTT, dithiothreitol]
effect on specific binding in the GHRH assay (GHRH receptor (GHRH-R); preincubation with 1 mM DTT): completely eliminated

Compound: GHRH(1-29)-NH2
inhibition of 125I-secretin binding [1]: 20%

Compound: vasoactive intestinal peptide [VIP]
competition for the 125I-GHRHa binding site (GHRH receptor (GHRH-R)): did not compete; also recorded: no competition
inhibition of 125I-secretin binding [1]: 20%
effect on the 55 kDa cross-linked band (GHRH-R (55 kDa band); 100 nM VIP): unaffected

More lines, main results first:

displacement of photoprobe binding to membrane pellets (GHRH receptor (GHRH-R); 50 μM GTPγS): partially displaced
Compound: Nc1nc2c(ncn2[C@@H]2O[C@H](COP(=O)(O)OP(=O)(O)OP(O)(O)=S)[C@@H](O)[C@H]2O)c(=O)[nH]1 [GTPγS]
reduction of the 55 kDa cross-linked band (GHRH-R (55 kDa band); 50 μM GTPγS): over 50%

displacement of photoprobe binding to membrane pellets (GHRH receptor (GHRH-R); 10 nM GHRHa): totally displaced
Kd (GHRH receptor (GHRH-R); crude ovine pituitary membrane pellets, program Ligand, read-out: Kd, saturation binding to a single high affinity site): ~160 pM
Compound: [His^1, Nle^27 ]-GHRH-(1-32)-NH2 [GHRHa]
effect on the 55 kDa cross-linked band (GHRH-R (55 kDa band); 10 nM GHRHa): completely eliminated
